Patent US6930222B2, “In vivo animal model of human leukemia” (The Scripps Research Institute, priority 2000, dated 2005)

Tested on: primary T-ALL obtained from patients
Experiment: in vitro leukemia colony assay (methylcellulose, IL-2 and PMA)
Assay type: cell-based, human
Conditions: 10 ng/ml
From the text: To characterize the nature of the enhancing activity on leukemia engraftment, colony formation of leukemia clonogenic cells was examined in vitro in the presence of cord blood or cord blood derived mesenchymal stem cell conditioned medium. The in vitro leukemia colony assay is based on the ability of leukemic clonogenic cells to proliferate and form colonies in response to growth factors such as IL-2. These leukemic “progenitor” cells have been implicated in the maintenance and expansion of leukemic blast populations.
On microscopic analysis, there is a wide range of colony sizes in the samples to which conditioned medium was added. The colonies in the cultures were individually picked, pooled for similar sizes of colonies, and the number of leukemia cells counted.
Using this primary leukemia sample, leukemia colony forming assay with the addition of cord blood conditioned medium was performed. […] On day 14, leukemia colonies were individually picked. Approximately 1.4×10^6 cells were recovered, and these cells were pooled for flow cytometric analysis. The vast majority of cells are uniquely CD45^−CD7^+, CD45^−CD34^+, and CD7^+CD34^+. Collectively, the results are consistent with approximately 90% of the harvested cells from in vitro cultures having the surface phenotype CD45^−CD7^+CD34^+, identical to the atypical phenotype of the primary leukemia of this patient. […]

For “recombinant IL-15: potent immunoregulatory cytokine, also a T-cell growth factor”, the “stimulation of colony formation of primary leukemia” value was “about 80%”.
